{"source": "patent US8802597B2", "about": "“Herbicidal pyrimidines” (E I du Pont de Nemours and Company, priority 2003, dated 2014)", "assay_in_all_cases": "Test J mixtures of compound 58 with azimsulfuron, flooded paddy", "format_in_all_cases": "in vivo", "conditions_in_all_cases": "21 days, scale 0-100", "key": {"[1]": {"test_system": "purple redstem (AMMCO; Ammannia coccinea)", "from_the_text": "(§1) This test evaluated the effect of mixtures of compound 58 with azimsulfuron on several plant species. Three plastic pots (ca. 16-cm diameter) per rate were partially filled with sterilized Tama silt loam soil comprising a 35:50:15 ratio of sand, silt and clay and 2.6% organic matter. Separate plantings for each of the three pots were as follows. Seeds from the U.S. of ducksalad (HETLI; Heteranthera limosa), smallflower umbrella sedge (CYPDI; Cyperus difformis) and purple redstem (AMMCO; Ammannia coccinea), were planted into one 16-cm pot for each rate. Seeds from the U.S. of bearded sprangletop (LEFUF; Leptochloa fusca ssp. fascicularis), one stand of 9 or 10 water-seeded rice seedlings (ORYSW; Oryza sativa cv. ‘Japonica-M202’), and one stand of 6 transplanted rice seedlings (ORYSP; Oryza sativa cv. ‘Japonica-M202’) were planted into one 16-cm pot for each rate. Seeds from the U.S. of barnyardgrass (ECHCG; Echinochloa crus-galli), late watergrass (ECOR2; Echinochloa oryzicola), early watergrass (ECHOR; Echinochloa oryzoides) and junglerice (ECHCO; Echinochloa colona) were planted into one 16-cm pot for each rate. Plantings were sequential so that crop and weed species were at the 2.0 to 2.5-leaf stage at time of treatment.\n(§2) Potted plants were grown in a greenhouse with day/night temperature settings of 29.5/26.7° C., and supplemental balanced lighting was provided to maintain a 16-hour photoperiod. Test pots were maintained in the greenhouse until test completion.\n(§3) At time of treatment, test pots were flooded to 3 cm above the soil surface and then treated by application directly to the paddy water of test compounds formulated in a non-phytotoxic solvent mixture which included a surfactant. The pots were maintained at the 3-cm water depth for the duration of the test. Treatments consisted of compound 58 and azimsulfuron alone and in combination. Effects of treatments on rice and weeds were visually evaluated by comparison to untreated controls after 21 days. Plant response ratings were calculated as the means of the three replicates and are summarized in Table J. The ratings are based on a scale of 0 to 100 where 0 is no effect and 100 is complete control. A dash (-) response means no test result. Colby's Equation was used to determine the herbicidal effects expected from the mixtures."}, "[2]": {"test_system": "water-seeded rice seedlings (ORYSW; Oryza sativa cv. ‘Japonica-M202’)", "from_the_text": "as §1, §2, §3"}, "[3]": {"test_system": "late watergrass (ECOR2; Echinochloa oryzicola)", "from_the_text": "as §1, §2, §3"}, "[4]": {"test_system": "junglerice (ECHCO; Echinochloa colona)", "from_the_text": "as §1, §2, §3"}, "[5]": {"test_system": "transplanted rice seedlings (ORYSP; Oryza sativa cv. ‘Japonica-M202’)", "from_the_text": "as §1, §2, §3"}, "[6]": {"test_system": "early watergrass (ECHOR; Echinochloa oryzoides)", "from_the_text": "as §1, §2, §3"}, "[7]": {"test_system": "ducksalad (HETLI; Heteranthera limosa)", "from_the_text": "as §1, §2, §3"}, "[8]": {"test_system": "barnyardgrass (ECHCG; Echinochloa crus-galli)", "from_the_text": "as §1, §2, §3"}, "[9]": {"test_system": "smallflower umbrella sedge (CYPDI; Cyperus difformis)", "from_the_text": "as §1, §2, §3"}, "[10]": {"test_system": "bearded sprangletop (LEFUF; Leptochloa fusca ssp. fascicularis)", "from_the_text": "as §1, §2, §3"}}}
{"smiles": "COc1cc(OC)nc(NC(=O)NS(=O)(=O)c2c(-c3nnn(C)n3)cnn2C)n1", "note": "[Azimsulfuron]", "values": [{"measurement": "AMMCO Obsd.", "setting": "[1]; Azimsulfuron 2 g a.i./ha alone", "result": 0}, {"measurement": "AMMCO Obsd.", "setting": "[1]; Azimsulfuron 4 g a.i./ha alone", "result": 0}, {"measurement": "AMMCO Obsd.", "setting": "[1]; Azimsulfuron 8 g a.i./ha alone", "result": 95}, {"measurement": "ORYSW Obsd.", "setting": "[2]; Azimsulfuron 2 g a.i./ha alone", "result": 0}, {"measurement": "ORYSW Obsd.", "setting": "[2]; Azimsulfuron 4 g a.i./ha alone", "result": 0}, {"measurement": "ORYSW Obsd.", "setting": "[2]; Azimsulfuron 8 g a.i./ha alone", "result": 10}, {"measurement": "ECOR2 Obsd.", "setting": "[3]; Azimsulfuron 2 g a.i./ha alone", "result": 0}, {"measurement": "ECOR2 Obsd.", "setting": "[3]; Azimsulfuron 4 g a.i./ha alone", "result": 0}, {"measurement": "ECOR2 Obsd.", "setting": "[3]; Azimsulfuron 8 g a.i./ha alone", "result": 50}, {"measurement": "ECHCO Obsd.", "setting": "[4]; Azimsulfuron 2 g a.i./ha alone", "result": 0}, {"measurement": "ECHCO Obsd.", "setting": "[4]; Azimsulfuron 4 g a.i./ha alone", "result": 0}, {"measurement": "ECHCO Obsd.", "setting": "[4]; Azimsulfuron 8 g a.i./ha alone", "result": 40}, {"measurement": "ORYSP Obsd.", "setting": "[5]; Azimsulfuron 2 g a.i./ha alone", "result": 0}, {"measurement": "ORYSP Obsd.", "setting": "[5]; Azimsulfuron 4 g a.i./ha alone", "result": 0}, {"measurement": "ORYSP Obsd.", "setting": "[5]; Azimsulfuron 8 g a.i./ha alone", "result": 0}, {"measurement": "ECHOR Obsd.", "setting": "[6]; Azimsulfuron 2 g a.i./ha alone", "result": 0}, {"measurement": "ECHOR Obsd.", "setting": "[6]; Azimsulfuron 4 g a.i./ha alone", "result": 0}, {"measurement": "ECHOR Obsd.", "setting": "[6]; Azimsulfuron 8 g a.i./ha alone", "result": 40}, {"measurement": "HETLI Obsd.", "setting": "[7]; Azimsulfuron 2 g a.i./ha alone", "result": 30}, {"measurement": "HETLI Obsd.", "setting": "[7]; Azimsulfuron 4 g a.i./ha alone", "result": 30}, {"measurement": "HETLI Obsd.", "setting": "[7]; Azimsulfuron 8 g a.i./ha alone", "result": 100}, {"measurement": "ECHCG Obsd.", "setting": "[8]; Azimsulfuron 2 g a.i./ha alone", "result": 0}, {"measurement": "ECHCG Obsd.", "setting": "[8]; Azimsulfuron 4 g a.i./ha alone", "result": 0}, {"measurement": "ECHCG Obsd.", "setting": "[8]; Azimsulfuron 8 g a.i./ha alone", "result": 30}, {"measurement": "CYPDI Obsd.", "setting": "[9]; Azimsulfuron 2 g a.i./ha alone", "result": 95}, {"measurement": "CYPDI Obsd.", "setting": "[9]; Azimsulfuron 4 g a.i./ha alone", "result": 100}, {"measurement": "CYPDI Obsd.", "setting": "[9]; Azimsulfuron 8 g a.i./ha alone", "result": 100}, {"measurement": "LEFUF Obsd.", "setting": "[10]; Azimsulfuron 2 g a.i./ha alone", "result": 0}, {"measurement": "LEFUF Obsd.", "setting": "[10]; Azimsulfuron 4 g a.i./ha alone", "result": 0}, {"measurement": "LEFUF Obsd.", "setting": "[10]; Azimsulfuron 8 g a.i./ha alone", "result": 0}]}
